{
  "source": "patent US20250255929A1",
  "about": "“METHODS FOR REDUCING RISKS ASSOCIATED WITH HEART FAILURE AND FACTORS ASSOCIATED THEREWITH” (Stealth BioTherapeutics Inc., priority 2012, published 2025)",
  "format_in_all_cases": "in vivo",
  "key": {"[1]": {"system": "C-reactive protein", "test": "Plasma C-reactive protein (canine ELISA) in dog model of heart failure", "design": "C-reactive protein concentration, BL, Mean / C-reactive protein concentration, 12 Wk, Mean / C-reactive protein concentration, BL / C-reactive protein concentration, 6 Wk / C-reactive protein concentration, 12 Wk: unit not given here", "conditions": "for plasma CRP levels (FIG. 1), in words: HF dogs", "description": "Heart failure was induced in dogs via multiple sequential intracoronary microembolizations as described in Sabbah, et al., Am J Physiol. (1991) 260:H1379-84, herein incorporated by reference in its entirety.\nHalf the dogs were subsequently treated with the mitochondrial peptide; the other half were treated with drug vehicle and served as controls. Peptide treatment was started upon induction of heart failure (HF), defined as left ventricular ejection fraction of approximately 30%. Peripheral venous blood samples were obtained from all dogs at the following time points: 1) when the dogs were normal (baseline, prior to the induction of heart failure); 2) when the dogs were induced into heart failure; 3) at 6 weeks after initiating therapy with the mitochondrial peptide or vehicle (HF+peptide, or HF+vehicle) both administered once daily as subcutaneous injections; and 4) at 12 weeks after initiating therapy with the mitochondrial peptide or vehicle. The daily dose of the peptide was 0.5 mg/kg/day administered […]. Blood samples were drawn on EDTA anticoagulant and were centrifuged at 2,500 RPM and the plasma extracted, aliquoted in 1 ml volumes into crystat tubes and stored at −70° C. until assayed. Once the follow-up was completed in all dogs, the plasma samples were thawed to room temperature and CRP was assayed using a canine specific ELISA kit (ALPCO: Cat #41-CRPCA-E01). The calorimetric method was used to assess the amount of CRP in plasma. CRP concentration was expressed as […]."}, "[2]": {"system": "reactive oxygen species (ROS)", "test": "Plasma ROS (luminol chemiluminescence) in dog model of heart failure", "conditions": "for plasma ROS levels (FIG. 2), in words: HF dogs", "description": "Heart failure was induced as described in Example 1. […] Half the dogs were treated with the peptide; the other half were treated with drug vehicle and served as controls. Peptide treatment was started upon induction of heart failure (HF), defined as left ventricular ejection fraction of approximately 30%. The daily dose of the peptide was 0.5 mg/kg/day administered intravenously. Blood samples were drawn on EDTA anticoagulant and were centrifuged at 2,500 RPM and the plasma extracted, aliquoted in 1 ml volumes into crystat tubes and stored at −70° C. until assayed. Once the follow-up was completed in all dogs, the plasma samples were thawed to room temperature and ROS was assayed. To assess ROS levels in the plasma, luminol (5-amino-2,3 dihydro-1,4 phtalazindione) was added to the samples. ROS levels were then assessed by chemiluminescence activity."}, "[3]": {"system": "interleukin-6 (IL-6)", "test": "Plasma IL-6 (double antibody sandwich ELISA) in dog model of heart failure", "conditions": "for plasma IL-6 levels (FIG. 3), in words: HF dogs", "description": "The methods of Example 1 were used to induce heart failure, administer peptide or vehicle and collect plasma. Fourteen dogs were used in this example. Half the dogs were treated with the mitochondrial peptide; the other half were treated with drug vehicle and served as controls. Peptide treatment was started in both groups upon induction of heart failure (HF), defined as left ventricular ejection fraction of approximately 30%.\nIL-6 was quantified in EDTA-plasma using the double antibody sandwich ELISA technique. Briefly, IL-6 (Canine IL-6 Duo Set, Cat #DY1609) was purchased from R&D Systems. The assay was performed based on instructions provided by the supplier with minor modifications. The amount of EDTA-plasma incubated with the antibody plate was 150 μl and incubation time was 18 hours at 4° C. Using standard curves and software, the concentration of IL-6 was expressed as pg/ml."}, "[4]": {"conditions": "plasma, individual HF dogs, 6 weeks after initiating therapy, 0.5 mg/kg/day"}, "[5]": {"conditions": "plasma, peptide group, individual dogs, baseline (before HF and treatment)"}, "[6]": {"conditions": "plasma, peptide group, individual dogs, heart failure prior to initiating therapy"}},
  "note": "Several values for one entry are separate records, joined by “and”; a condition that tells them apart may be missing. Equal values may be shown once. Square brackets hold non-standard residues; d marks the D form. Ends that are not written are not given here. Dmt = Cc1cc(O)cc(C)c1C[C@H](N)C(=O)O",
  "data": [
    {"substance": "D-Arg-2′,6′-Dmt-Lys-Phe-NH2 ([dR][Dmt]KF-NH2) [aromatic-cationic peptide]", "values": [
      {"measurement": "plasma CRP levels (FIG. 1), in words", "setting": "[1]; treatment for 12 weeks", "result": "normal or near normal levels"},
      {"measurement": "plasma CRP levels (FIG. 1), in words", "setting": "[1]; treatment for six weeks", "result": "reduced CRP levels"},
      {"measurement": "C-reactive protein concentration, 6 Wk", "setting": "[1]; [4]", "result": 1.12},
      {"measurement": "C-reactive protein concentration, 12 Wk, Mean", "setting": "[1]; plasma, mean of 3 HF dogs, 12 weeks after initiating therapy, 0.5 mg/kg/day", "result": 1.42},
      {"measurement": "C-reactive protein concentration, BL, Mean", "setting": "[1]; plasma, peptide group mean (3 dogs), baseline, prior to induction of heart failure (before treatment)", "result": 1.82},
      {"measurement": "plasma ROS levels (FIG. 2), in words", "setting": "[2]; treatment for 12 weeks", "result": "near normal levels"},
      {"measurement": "plasma ROS levels (FIG. 2), in words", "setting": "[2]; treatment for six weeks", "result": "reduced ROS levels"},
      {"measurement": "Reactive oxygen species concentration, 6 Wk", "setting": "[2]; [4]", "result": "18.4 RLU×10^5/ml and 16.6 RLU×10^5/ml and 15.1 RLU×10^5/ml and 23.3 RLU×10^5/ml"},
      {"measurement": "Reactive oxygen species concentration, 12 Wk", "setting": "[2]; plasma, individual HF dogs, 12 weeks after initiating therapy, 0.5 mg/kg/day", "result": "12.4 RLU×10^5/ml (2×) and 8.3 RLU×10^5/ml and 9.0 RLU×10^5/ml and 10.5 RLU×10^5/ml"},
      {"measurement": "Reactive oxygen species concentration, 12 Wk, Mean", "setting": "[2]; plasma, mean of 5 HF dogs, 12 weeks after initiating therapy, 0.5 mg/kg/day", "result": 10.5, "unit": "RLU×10^5/ml"},
      {"measurement": "Reactive oxygen species concentration, 6 Wk, Mean", "setting": "[2]; plasma, mean of HF dogs, 6 weeks after initiating therapy, 0.5 mg/kg/day", "result": 18.4, "unit": "RLU×10^5/ml"},
      {"measurement": "Reactive oxygen species concentration, BL, Mean", "setting": "[2]; plasma, peptide group mean (5 dogs), baseline (before HF and treatment)", "result": 5.3, "unit": "RLU×10^5/ml"},
      {"measurement": "Reactive oxygen species concentration, PRE, Mean", "setting": "[2]; plasma, peptide group mean, heart failure prior to initiating therapy", "result": 20.7, "unit": "RLU×10^5/ml"},
      {"measurement": "Reactive oxygen species concentration, BL", "setting": "[2]; [5]", "result": "5.5 RLU×10^5/ml and 3.9 RLU×10^5/ml and 6.8 RLU×10^5/ml and 5.7 RLU×10^5/ml and 4.7 RLU×10^5/ml"},
      {"measurement": "Reactive oxygen species concentration, PRE", "setting": "[2]; [6]", "result": "23.6 RLU×10^5/ml and 18.5 RLU×10^5/ml and 14.6 RLU×10^5/ml and 26.0 RLU×10^5/ml"},
      {"measurement": "plasma IL-6 levels (FIG. 3), in words", "setting": "[3]; treatment for 12 weeks", "result": "near normal levels"},
      {"measurement": "plasma IL-6 levels (FIG. 3), in words", "setting": "[3]; treatment for six weeks", "result": "reduced IL-6 levels"},
      {"measurement": "IL-6 concentration, 6 Wk", "setting": "[3]; plasma, individual HF dogs, 6 weeks after initiating therapy", "result": "18.8 pg/ml and 23.4 pg/ml and 24.3 pg/ml and 19.5 pg/ml and 19.6 pg/ml (2×) and 20.5 pg/ml"},
      {"measurement": "IL-6 concentration, 12 Wk", "setting": "[3]; plasma, individual HF dogs, 12 weeks after initiating therapy", "result": "11.7 pg/mL and 11.3 pg/mL and 13.6 pg/mL and 11.5 pg/mL and 12.5 pg/mL and 11.9 pg/mL and 11.4 pg/mL"},
      {"measurement": "IL-6 concentration, 6 Wk, Mean", "setting": "[3]; plasma, mean of 7 HF dogs, 6 weeks after initiating therapy", "result": 20.8, "unit": "pg/mL"},
      {"measurement": "IL-6 concentration, 12 Wk, Mean", "setting": "[3]; plasma, mean of 7 HF dogs, 12 weeks after initiating therapy", "result": 12.0, "unit": "pg/mL"},
      {"measurement": "IL-6 concentration, BL, Mean", "setting": "[3]; plasma, peptide group mean (7 dogs), baseline (before HF and treatment)", "result": 10.1, "unit": "pg/mL"},
      {"measurement": "IL-6 concentration, PRE, Mean", "setting": "[3]; plasma, peptide group mean (7 dogs), heart failure prior to initiating therapy", "result": 26.6, "unit": "pg/mL"},
      {"measurement": "IL-6 concentration, BL", "setting": "[3]; [5]", "result": "9.1 pg/mL and 5.8 pg/mL and 7.0 pg/mL and 12.6 pg/mL and 10.3 pg/mL and 12.5 pg/mL and 13.0 pg/mL"},
      {"measurement": "IL-6 concentration, PRE", "setting": "[3]; [6]", "result": "29.3 pg/mL and 18.5 pg/mL and 29.2 pg/mL and 18.0 pg/mL and 31.2 pg/mL and 29.4 pg/mL and 30.4 pg/mL"}
    ]}
  ]
}
